Test results from patent US12180226B2, “Spirotricycle RIPK1 inhibitors and methods of uses thereof” (Merck Sharp & Dohme LLC, priority 2021, dated 2024).
Counter-ions that a name gives are not always drawn.

Each compound was assayed against RIPK1 (recombinant GST-RIPK1 kinase domain, residues 1-327) (Homo sapiens (Human), UniProt Q13546) (assay: RIPK1-ADP-Glo Enzymatic Assay). Settings: ADP-Glo; 25 nM GST-RIPK1, 300 μM ATP; assay lower limit ~25 nM; read-out: RIPK1 V0 Ec50.
Format: biochemical
Outline: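 Luminescent ADP-Glo readout of ATP-to-ADP conversion. Conditions: 25 nM enzyme, 300 μM ATP, 3 μM dephospho-MBP, pH 7.3 HEPES buffer with 20 mM MgCl2; 30 min compound pre-incubation, 150 min reaction. EC50 via four-parameter sigmoidal regression; assay floor ~25 nM.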

Chain of RIPK1 (recombinant GST-RIPK1 kinase domain, residues 1-327) (Q13546 1-327): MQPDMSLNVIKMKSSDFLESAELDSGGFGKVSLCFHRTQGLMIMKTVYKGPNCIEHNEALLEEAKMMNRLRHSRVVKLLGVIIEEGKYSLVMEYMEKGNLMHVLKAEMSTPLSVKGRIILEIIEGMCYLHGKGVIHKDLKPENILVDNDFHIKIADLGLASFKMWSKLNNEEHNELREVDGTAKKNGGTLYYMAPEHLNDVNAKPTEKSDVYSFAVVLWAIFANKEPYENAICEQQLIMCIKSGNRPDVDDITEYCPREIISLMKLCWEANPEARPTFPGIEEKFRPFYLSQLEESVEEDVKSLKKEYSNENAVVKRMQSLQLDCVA

| Structure (SMILES) | EC50 [µM] |
| --- | --- |
| O=C1N2[C@@H](CC[C@H]2c2cc(F)cc(F)c2)OC12CN(c1ccnc3c(F)cnn13)C2 [Example 4.117, (5′S,7a′R)-5′-(3,5-difluorophenyl)-1-(3-fluoropyrazolo[1,5-a]pyrimidin-7-yl)tetrahydro-3′H-spiro[azetidine-3,2′-pyrrolo[2,1-b]oxazol]-3′-one] | < 0.025 |
| O=C(c1ccccc1)N1C2CCC1CC1(C2)O[C@@H]2CC[C@@H](c3cc(F)cc(F)c3)N2C1=O (stereo partly drawn) [Example 6.134, (5′S,7a′R)-8-(benzene-carbonyl)-5′-(3,5-difluorophenyl)tetra-hydro-3′H-spiro[8-azabicyclo[3.2.1]-octane-3,2′-pyrrolo-[2,1-b][1,3]oxazol]-3′-one] | 0.0924 |
| Cc1cccc(C(=O)N2CCC3(CC2)O[C@@H]2CC[C@@H](c4cccc(F)c4)N2C3=O)c1F [Example 6.119, (5′S,7a′R)-1-(2-fluoro-3-methylbenzene-1-carbonyl)-5′-(3-fluoro-phenyl)tetrahydro-3′H-spiro[piperidine-4,2′-pyrrolo[2,1-b][1,3]oxazol]-3′-one] | < 0.025 |
| O=C1N2[C@@H](CC[C@H]2c2cc(F)cc(F)c2)OC12CCN(C(c1ccccc1)C(F)F)CC2 (single isomer, unassigned) [Example 22.2, (5′S,7a′R)-1-(2,2-Difluoro-1-phenylethyl)-5′-(3,5-difluorophenyl)tetrahydro-3′H-spiro[piperidine-4,2′-pyrrolo[2,1-b]oxazol]-3′-one] | 0.243 |
| O=C1N2[C@@H](CC[C@H]2c2cc(F)cc(F)c2)OC12CCN(c1ncc(F)c3nncn13)CC2 [Example 13.13, (5′S,7a′R)-5′-(3,5-difluorophenyl)-1-(8-fluoro-[1,2,4]triazolo[4,3-c]pyrimidin-5-yl)tetrahydro-3′H-spiro[piperidine-4,2′-pyrrolo[2,1-b]oxazol]-3′-one, TFA salt] | 0.366 |
| O=C1N2[C@@H](CC[C@H]2c2ccccc2)OC12CCN(c1ncc(-c3cnco3)cc1F)CC2 [Example 21.5, (5′S,7a′R)-1-[3-fluoro-5-(1,3-oxazol-5-yl)pyridin-2-yl]-5′-phenyltetrahydro-3′H-spiro[piperidine-4,2′-pyrrolo[2,1-b][1,3]oxazol]-3′-one] | < 0.025 |
| Cc1ncccc1C(=O)N1CCC2(CC1)O[C@@H]1CC[C@@H](c3cc(F)cc(F)c3)N1C2=O [Example 6.52, (5′S,7a′R)-5′-(3,5-difluorophenyl)-1-(2-methylpyridine-3-carbonyl)tetrahydro-3′H-spiro[piperidine-4,2′-pyrrolo[2,1-b] [1,3]oxazol]-3′-one] | 0.528 |
| N#Cc1ccc(N2CCC3(O[C@@H]4CC[C@@H](c5ccccc5)N4C3=O)C(F)C2)n2ncnc12 (stereo partly drawn) [Example 4.258, 5-[(5′S,7a′R)-3-fluoro-3′-oxo-5′-phenyltetrahydro-1H,3′H-spiro[piperidine-4,2′-pyrrolo[2,1-b] [1,3]oxazol]-1-yl][1,2,4]triazolo[1,5-a] pyridine-8-carbonitrile] | < 0.025 |
| O=C(c1cccc(C2CC2)c1)N1CCC2(CC1)O[C@@H]1CC[C@@H](c3ccccc3)N1C2=O [Example 6.156, (5′S,7a′R)-1-(3-cyclopropylbenzene-1-carbonyl)-5′-phen-yltetrahydro-3′H-spiro[piperidine-4,2′-pyrrolo[2,1-b][1,3]oxazol]-3′-one] | < 0.025 |
| Cc1nc(N2CCC3(CC2)O[C@@H]2CC[C@@H](c4ccccc4)N2C3=O)ccc1C#N [Example 4.74, 2-methyl-6-[(5′S,7a′R)-3′-oxo-5′-phenyltetrahydro-1H,3′H-spiro[piperidine-4,2′-pyrrolo[2,1-b] [1,3]oxazol]-1-yl]pyridine-3-carbonitrile] | < 0.025 |
| N#Cc1ccc(N2CC3(C2)O[C@@H]2CC[C@@H](c4ccccc4)N2C3=O)c2ccnn12 [Example 13.21, 4-((5′S,7a′R)-3′-oxo-5′-phenyltetrahydro-3′H-spiro[azetidine-3,2′-pyrrolo[2,1-b]oxazol]-1-yl)pyrazolo[1,5-a]pyridine-7-carbonitrile, TFA salt] | 0.0253 |
| N#Cc1ccc(N2CCC3(CC2)O[C@@H]2CC[C@@H](c4cc(F)cc(F)c4)N2C3=O)cc1-n1ccnn1 [Example 4.70, 4-[(5′S,7a′R)-5′-(3,5-difluorophenyl)-3′-oxotetrahydro-1H,3′H-spiro[piperidine-4,2′-pyrrolo[2,1-b] [1,3]oxazol]-1-yl]-2-(1H-1,2,3-triazol-1-yl)benzonitrile] | 0.0543 |
| N#Cc1cnc(N2CCC3(CC2)O[C@@H]2CC[C@@H](c4ccccc4)N2C3=O)c(F)c1 [Example 4.72, 5-fluoro-6-[(5′S,7a′R)-3′-oxo-5′-phenyltetrahydro-1H,3′H-spiro[piperidine-4,2′-pyrrolo[2,1-b] [1,3]oxazol]-1-yl]pyridine-3-carbonitrile] | 0.0298 |
| O=C(c1cocn1)N1CCC2(CC1)O[C@@H]1CC[C@@H](c3cc(F)cc(F)c3)N1C2=O [Example 5.30, (5′S,7a′R)-5′-(3,5-difluoro-phenyl)-1-(1-oxazole-4-carbonyl)tetrahydro-3′H-spiro[piperidine-4,2′-pyrrolo[2,1-b]oxazol]-3′-one] | 0.0284 |
| O=C1N2[C@@H](CC[C@H]2c2ccccc2)OC12CCN(c1ccc(Cl)c3ncnn13)CC2 [Example 15.3, (5′S,7a′R)-1-(8-chloro-[1,2,4]triazolo[1,5-a]pyridin-5-yl)-5′-phenyltetrahydro-3′H-spiro[piperidine-4,2′-pyrrolo[2,1-b]oxazol]-3′-one, TFA salt] | < 0.025 |
| CC1CN(c2cccc3ncnn23)CCC12O[C@@H]1CC[C@@H](c3cc(F)cc(F)c3)N1C2=O (stereo partly drawn) [Example 4.266, (5′S,7a′R)-5′-(3,5-difluorophenyl)-3-methyl-1-([1,2,4]triazolo[1,5-a]pyridin-5-yl)tetrahydro-3′H-spiro[piperidine-4,2′-pyrrolo[2,1-b] [1,3]oxazol]-3′-one] | < 0.025 |
| COc1cccnc1C(=O)N1CCC2(CC1)O[C@@H]1CC[C@@H](c3cc(F)cc(F)c3)N1C2=O [Example 6.81, (5′S,7a′R)-5′-(3,5-difluorophenyl)-1-(3-methoxypyridine-2-carbonyl)tetrahydro-3′H-spiro[piperidine-4,2′-pyrrolo[2,1-b] [1,3]oxazol]-3′-one] | 0.935 |
| Cc1oncc1C(=O)N1CCC2(CC1)O[C@@H]1CC[C@@H](c3cc(F)cc(F)c3)N1C2=O [Example 6.60, (5′S,7a′R)-5′-(3,5-difluorophenyl)-1-(5-methyl-1,2-oxazole-4-carbonyl)tetrahydro-3′H-spiro[piperidine-4,2′-pyrrolo[2,1-b] [1,3]oxazol]-3′-one] | 0.095 |
| Cc1ccccc1C(=O)N1CCC2(CC1)O[C@@H]1CC[C@@H](c3cc(F)cc(F)c3)N1C2=O [Example 6.11, (5′S,7a′R)-5′-(3,5-difluorophenyl)-1-(2-methybenzene-1-carbonyl)tetrahydro-3′H-spiro[piperidine-4,2′-pyrrolo[2,1-b] [1,3]oxazol]-3′-one] | 0.0692 |
| O=C(c1ccccc1)N1CCC2(CC1)O[C@@H]1CC[C@@H](c3cc(F)ccc3F)N1C2=O [Example 7.2, (5′S,7a′R)-1-(benzenecarbonyl)-5′-(2,5-difluorophenyl)tetrahydro-3′H-spiro[piperidine-4,2′-pyrrolo[2,1-b][1,3]oxazol]-3′-one] | < 0.025 |
| CSc1nc(C)cc(N2CCC3(CC2)O[C@@H]2CC[C@@H](c4ccccc4)N2C3=O)n1 [Example 4.36, (5′S,7a′R)-1-[6-methyl-2-(methylsulfanyl)pyrimidin-4-yl]-5′-phenyltetrahydro-3′H-spiro[piperidine-4,2′-pyrrolo[2,1-b] [1,3]oxazol]-3′-one] | 0.0374 |
| Cc1nc(N2CCC3(CC2)O[C@@H]2CC[C@@H](c4ccccc4)N2C3=O)ncc1-c1ccnn1C [Example 21.8, (5′S,7a′R)-1-[4-methyl-5-(1-methyl-1H-pyrazol-5-yl)pyrimidin-2-yl]-5′-phenyltetrahydro-3′H-spiro[piperidine-4,2′-pyrrolo[2,1-b][1,3]oxazol]-3′-one] | 0.0366 |
| Cc1ccc([C@@H]2CC[C@H]3OC4(CCN(C(=O)c5ccccc5)CC4)C(=O)N32)c(F)c1 [Example 17.11, (5′S,7a′R)-1-benzoyl-5′-(2-fluoro-4-methylphenyl)tetrahydro-3′H-spiro[piperidine-4,2′-pyrrolo[2,1-b]oxazol]-3′-one] | < 0.025 |
| O=C1N2[C@@H](CC[C@H]2c2cc(F)cc(F)c2)OC12CCN(c1ccc(-c3ncco3)c3ncnn13)CC2 [Example 21.1, (5′S,7a′R)-5′-(3,5-Difluorophenyl)-1-(8-(oxazol-2-yl)-[1,2,4]triazolo[1,5-a]pyridin-5-yl)tetrahydro-3′H-spiro[piperidine-4,2′-pyrrolo[2,1-b]oxazol]-3′-one] | < 0.025 |
| O=C(c1ccccc1)N1CCC2(CC1)SC1CC[C@H](c3cc(F)cc(F)c3)N1C2=O (stereo partly drawn) [Example 1.21, (5′R)-1-benzoyl-5′-(3,5-difluorophenyl)tetrahydro-3′H-spiro[piperidine-4,2′-pyrrolo[2,1-b]thiazol]-3′-one] | 0.501 |
| O=C(c1ccccc1)N1CCC2(CC1)O[C@@H]1[C@@H](O)C[C@@H](c3ccccc3)N1C2=O [Example 6.136] | 0.136 |
| O=C1N2[C@@H](CC[C@H]2c2ccccc2)OC12CCN(c1cc(-c3ccc(F)cc3)c([N+](=O)[O-])cn1)CC2 [Example 4.208, (5′S,7a′R)-1-[4-(4-fluorophenyl)-5-nitropyridin-2-yl]-5′-phenyltetrahydro-3′H-spiro[piperidine-4,2′-pyrrolo[2,1-b] [1,3]oxazol]-3′-one] | 0.056 |
| Cc1nc(C(=O)N2CCC3(CC2)O[C@@H]2CC[C@@H](c4cc(F)cc(F)c4)N2C3=O)no1 [Example 6.20, (5′S,7a′R)-5′-(3,5-difluorophenyl)-1-(5-methyl-1,2,4-oxadi-azole-3-carbonyl)-tetrahydro-3′H-spiro [piperidine-4,2′-pyrrolo[2,1-b][1,3]oxazol]-3′-one] | 0.136 |
